Assay results: patent US7488716B2 (priority 2001, dated 2009)
Where no end group is shown, it is not given here.

Assays:
[1] = tested on: rat hepatocytes; assay: Glucose release from rat hepatocytes (inhibition of glucagon mediated glucose production); type: cell-based; settings: 1 nM glucagon, 100 nM peptide, 3 trials
Protocol: Hepatocytes were isolated according to a modified procedure of Berry and Friend (J. Cell. Biol. 43:506, 1969). A fed male Wistar rat was anesthetized with sodium pentobarbital (55 mg/kg, i.p.). The rat was placed on its back on the tray of the liver perfusion apparatus (37° C.), and its limbs were secured with laboratory tape. The ventrical surface was cleaned with 70% alcohol, and the abdominal cavity was opened with scissors to expose the liver, portal vein, hepatic artery and the posterior vena cava. Ligatures were placed loosely around the three vessels. A cannula was inserted into the portal vein and was secured with the ligature. […] An aliquot of cells was diluted with buffer, stained with 0.4% Trypan Blue and counted. […]
Rat hepatocytes were added into a flat bottom 96 well plate (2×10^5/100 μl/well) and pre-incubated in a 37° C. incubator with constant shaking and under 95% O2/5% CO2 flow for 10 minutes. […] The resulting supernatant was analyzed for glucose with hexokinase and glucose-6-phosphate dehydrogenase (Methods of Enzymatic Analysis, H. U. Bermeyer, Ed., Academic Press) and the A340 read on a fMAX plate reader (Molecular Devices, Sunnyvale, Calif.).
Glucose output was calculated after subtracting the amount of glucose produced in the unstimulated hepatocytes from each data point and the percent inhibition was calculated.

[2] = target: T1, GLP-1 receptor (Rattus norvegicus, UniProt P32301); assay: Peptide signaling through GLP-1 receptor, cAMP scintillation proximity assay in RINm5F cells; type: cell-based; settings: for GLP1 Relative Potency: EC50 of native GLP-1 (7-36) divided by EC50 of polypeptide x 100, cAMP in RINm5F cells
T1 construct: endogenous in cells; host or cells: RINm5F cells
T1 sequence (P32301 22-463): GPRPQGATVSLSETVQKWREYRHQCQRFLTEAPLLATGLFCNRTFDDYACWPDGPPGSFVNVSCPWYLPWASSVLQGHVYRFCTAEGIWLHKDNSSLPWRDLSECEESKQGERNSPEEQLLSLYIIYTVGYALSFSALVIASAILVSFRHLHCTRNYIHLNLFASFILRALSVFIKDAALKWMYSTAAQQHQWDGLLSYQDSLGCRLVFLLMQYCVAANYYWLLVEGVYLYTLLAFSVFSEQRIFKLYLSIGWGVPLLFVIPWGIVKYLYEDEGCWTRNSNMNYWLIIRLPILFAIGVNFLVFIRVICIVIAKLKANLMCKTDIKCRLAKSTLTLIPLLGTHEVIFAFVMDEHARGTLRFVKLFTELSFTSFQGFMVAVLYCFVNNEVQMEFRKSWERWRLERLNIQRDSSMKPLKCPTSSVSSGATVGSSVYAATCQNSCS
Protocol: The media was removed and the cells were washed twice with PBS. […] For assay of peptides conjugated with fatty acid, the BSA was omitted from the incubation buffer. The incubation buffer was removed, and the cells were lysed in the lysis reagent provided with the cAMP Scintillation Proximity Assay (SPA) direct screening assay system (Amersham Pharmacia Biotech Inc, Piscataway, N.J.). The amount of cAMP (in pmol) present in the lysates was determined following instructions provided with this kit.
The amount of cAMP (in pmol) produced at each concentration of peptide was plotted and analyzed by nonlinear regression using Prizm software to determine the EC50 for each peptide.

[3] = target: T1, GLP-1 receptor; assay: Competitive binding of peptide to the GLP-1 receptor in RINm5F cell plasma membranes (125I GLP-1); settings: read-out: GLP1 RIN IC50
Protocol: Flasks of RINm5F cells were washed with PBS, scraped in 20 mM Hepes-1 mM EDTA-250 mM sucrose buffer containing protease inhibitors (HES) and homogenized in a dounce homogenizer followed by repeated resuspension through a 23 gauge needle. Unbroken cells and nuclei were removed by centrifugation at 500×g for 5 minutes. The pellet was resuspended in HES buffer using a 23 gauge needle and the centrifugation was repeated. The supernatants from the two spins were combined and centrifuged at 40,000×g for 20 min. The resulting plasma membrane pellet was resuspended in HES buffer using a 23 gauge needle followed by a 25 gauge needle. Membranes were stored at −80° C. until use.
(§1) Competitive binding of some polypeptides of the invention to RINm5F cell plasma membranes was measured as follows. Ninety-six-well GF/C filtration plates (Millipore, Bedford, Mass.) were blocked with 0.3% PEI for at least one hour and washed twice with binding buffer consisting of 20 mM Tris, 2 mM EDTA, pH 7.5, 1 mg/ml BSA, and 1 mg/ml bacitracin. […] The plates were dried, scintillant was added to each well, and cpm per well determined using a Wallac Microbeta counter.

[4] = tested on: glucagon-mediated elevation in blood glucose; assay: Glucagon-stimulated glucose production in fed Wistar rats; type: in vivo, rat; settings: iv, 0.3 nmol/kg glucagon plus 1 nmol/kg peptide
[5] = target: T2, glucagon receptor (Rattus norvegicus, UniProt P30082); assay: Competitive binding of peptide to the glucagon receptor in rat liver plasma membranes (125I glucagon)
T2 construct: glucagon receptor present in the plasma membranes isolated from rat liver; from tissue; host or cells: rat liver plasma membranes
Protocol: The wet weight of the livers was determined and the tissue minced in 5 volumes of ice cold TES buffer and a slurry prepared using a polytron. All buffers and spins were kept at 4° C. The slurry was further homogenized using three strokes of a handheld dounce homogenizer. The homogenate was passed through several layers of cheesecloth and spun at 25,000×g for 10 minutes. Pellets were homogenized in 22.1 ml TES buffer using 10 strokes of a handheld dounce homogenizer. Twenty-seven point nine milliliters of 2.4 M sucrose in TE was added and mixed well. The homogenate was distributed among several tubes, and each tube was overlaid with 7 ml of TES buffer. The tubes were spun at 120,000×g for 60 minutes. The plasma membranes were removed from the interface that formed during the spin, diluted in TES and concentrated using a 15 minute spin at 200,000×g. The resulting pellet was again homogenized in 9.8 ml TES buffer, combined with 10.3 ml 2.4M sucrose, overlaid with 7 ml TES, and centrifuged at 180,000×g for 30 min. […] The final pellet was resuspended in TES. Plasma membranes were stored at −80° C. until ready for use.
as §1, with “rat liver” for “RINm5F cell”, “0.1%” for “0.3%”

[6] = tested on: perfused rat islets; assay: Insulin secretion by perfused rat islets; type: cell-based; settings: 50 nM peptide, 8 mM glucose
Protocol: Sprague Dawley rats (275-320 g) were used as the source of donor islets. Briefly, the pancreas was filled with 10 ml of cold reconstituted Liberase RI (Boehringer Manheim), harvested and incubated with additional 5 ml enzyme solution in water bath for 30 minutes. Tissue suspension was washed twice with cold 10% FBS/Hanks buffer (Gibco), resuspended in 8 ml 25% ficoll (Sigma) and then layered with 5 ml each of 23%, 20% and 11% ficoll. The islets in the 20% layer after centrifugation were removed, washed twice with cold 10% FBS/Hank buffer and resuspended in 10% FBS/RPMI 1640 media (Sigma).
Insulin secretion of perfused rat islets mediated by some peptides of the invention was measured as follows. The bi-phasic responses of insulin release stimulated by these polypeptides were tested by islet perfusion. Fifty islets were loaded in the perifusion chamber and perifused with HEPES-KRB containing 3 mM glucose at 37° C. After 60 min, islets were exposed to buffer containing 8 mM glucose with or without peptide (50 nM) and perifused for another 30 min. Fractions of perifusate were collected at 1 or 5 minute intervals for insulin determination. Insulin was measured using an ELISA kit (Alpco Diagnostics, Windham, N.H.).

[7] = Intraperitoneal glucose tolerance testing (IPGTT) in rats or mice; type: in vivo; settings: ipGTT in mice 3 hours post dosing with 100 μg/kg peptide
Protocol: Blood glucose levels during intraperitoneal glucose tolerance testing in rats or mice by some polypeptides of the invention were measured as follows. The in vivo activity of the polypeptides of the invention when administered subcutaneously was examined in rats or mice. Rats or mice fasted overnight were given a subcutaneous injection of control or peptide (100 μg/kg). Basal blood glucose was measured prior to administration of peptides or three or 17 hours after administration of derivatized peptides, and the rats or mice were given 2 g/kg of glucose intraperitoneally. Blood glucose was measured again after 15, 30 and 60 minutes in rats or 30 and 60 minutes in mice.

[8] = tested on: glucagon-mediated elevation in blood glucose; assay: Glucagon-stimulated glucose production in fed Balb/C mice; type: in vivo
[9] = tested on: dispersed rat islet cells; assay: Insulin secretion from dispersed rat islet cells; type: cell-based; settings: 50 nM peptide, fold over control
Protocol: Insulin secretion of dispersed rat islets mediated by a number of peptides of the invention was measured as follows. Islets of Langerhans were isolated from SD rats (200-250 g) through a digestion procedure using collagenase. Dispersed islet cells were prepared through treatment with trypsin, seeded into 96 V-bottom plates and pelleted. Cells were cultured overnight in media. Media was aspirated and the cells were pre-incubated with Krebs-Ringer-HEPES buffer containing 3 mM glucose for 30 minutes at 37° C. Pre-incubation buffer was removed and cells were stimulated with Krebs-Ringer-HEPES buffer containing the appropriate glucose concentration (e.g., 8 mM), with and without peptides for an appropriate time at 37° C. […] A portion of supernatant was removed and its insulin content was measured by SPA. The results are expressed as fold over control (FOC). At a concentration of 50 nM, the polypeptide having an amino acid sequence shown in SEQ ID NO:27 increased insulin secretion from dispersed islet cells approximately 3-fold.

T2 sequence (P30082 27-485): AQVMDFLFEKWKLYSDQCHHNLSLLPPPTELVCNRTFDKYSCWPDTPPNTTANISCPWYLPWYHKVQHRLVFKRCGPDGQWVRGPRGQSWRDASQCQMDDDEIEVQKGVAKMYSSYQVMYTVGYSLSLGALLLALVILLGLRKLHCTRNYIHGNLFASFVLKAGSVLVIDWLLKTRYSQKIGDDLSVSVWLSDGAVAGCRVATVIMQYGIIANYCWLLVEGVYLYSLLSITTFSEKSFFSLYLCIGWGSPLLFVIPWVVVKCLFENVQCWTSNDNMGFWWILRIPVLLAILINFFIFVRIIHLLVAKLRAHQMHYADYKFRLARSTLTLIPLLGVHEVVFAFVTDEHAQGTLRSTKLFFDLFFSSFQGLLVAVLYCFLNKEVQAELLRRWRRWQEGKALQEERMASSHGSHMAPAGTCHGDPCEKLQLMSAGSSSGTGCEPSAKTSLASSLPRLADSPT

GLP1 Relative Potency [2] [%] | Emax ([2]; RIN-m5F, read-out: % GLP1 max) [%] | IC50 [3] [µM] | IC50 [5] [µM] | % GLP1 max ([2]; maximal cAMP activity relative to native GLP-1 (7-36), RINm5F cells) [%] | Substance | Inhibition of glucagon mediated glucose production [1] [%] | Inhibition of glucagon-mediated elevation in blood glucose (dAUC) [4] [%] | Increase of insulin secretion from perfused islets [6] | In vivo Decrease IpGTT AUC [7] [%] | % Inhibition ([8]; Balb/C mice, 10 μg/kg glucagon, 100 μg/kg peptide sc 17 h before) [%] | Glucose 15 min ([8]; Balb/C mice, 15 min after 10 μg/kg iv glucagon) [mg/dL] | Glucose Delta (15 − 0) ([8]; Balb/C mice, change over 15 min after glucagon) [mg/dL] | Glucose -Vehicle delta ([8]; Balb/C mice, delta minus vehicle group delta) [mg/dL] | % of 10 μg/kg Glucagon ([8]; Balb/C mice, glucose change relative to glucagon alone) [%] | Glucose 0 min ([8]; Balb/C mice, just prior to 10 μg/kg iv glucagon, peptide 100 μg/kg sc 17 h before) [mg/dL] | In vivo % Decrease glucagon stimulated blood glucose ([8]; glucagon challenge in mice 17 hours post dosing with 100 μg/kg peptide) [%] | Increase of insulin secretion from dispersed islet cells [9]
13.4 | 98.1 | 0.0022 | 0.0693 | – | HSQGTFTSDYAKYLDARRAKEFIAWLVKGR-NH2 [G27] | 47 | 63 | approximately 2 fold | – | – | – | – | – | – | – | – | –
0.7 | – | – | – | 98.3 | HSQGTFTSDYARYLDARRAREFIKWLVRGRC(43kD) (HSQGTFTSDYARYLDARRAREFIKWLVRGRC(PEG 43kD); listed as Homo sapiens) [G4185, 43kD PEG linked to the cysteine residue] | – | – | – | 36 | 31 | 150 | 75 | 59 | 69 | 75 | 31 | approximately 3 fold
